Assay results taken from US8895585B2, “Nicotinamide derivative or salt thereof” (FUJIFILM Corporation, priority 2010, dated 2014).

What was measured:
[1] = molecular target: T1, glutathione S-transferase (GST)-fused full-length human Syk protein (Homo sapiens, UniProt P43405); experiment: Syk enzyme assay; format: biochemical; conditions: Syk enzyme assay, Test Example 1; read-out: IC50 of Syk-inhibitory activity
T1 construct: (GST)-fused full-length human Syk protein; GST (glutathione S-transferase); purchased Carna Biosciences
Summary of the method: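 IC50 values come from a time-resolved FRET readout (615 and 665 nm) of substrate phosphorylation, measured after an EDTA stop and 1 h antibody binding. The kinase reaction ran 40 min at room temperature with 27 μM ATP and 0.4 μM biotin-peptide, following a 15 min compound preincubation with baculovirus-made GST-full-length human Syk.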

THP-1 cells = experiment: TNFα generation assay; format: cell-based, human; conditions: Homo sapiens, THP-1, THP-1 cells; Table 22; read-out: IC50 in TNFα generation assay
Summary of the method: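 THP-1 cells differentiated to macrophage-like cells with 10 ng/ml IFN-γ for 2 days, preincubated with compound 30 min at room temperature, then cultured 7 h on plates coated with human IgG (10 μg/ml). Secreted TNFα measured by ELISA or AlphaLISA.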

IC50 [1] [µM]	IC50 (THP-1 cells) [µM]	Compound
< 0.01	0.065 to 0.13	COc1cc(Nc2nc(N[C@H](CC3CC3)[C@H](C)N)c(F)cc2C(N)=O)ccn1 [Example 006-355, 6-(((2R,3S)-3-amino-1-cyclopropylbutan-2-yl)amino)-5-fluoro-2-((2-methoxypyridin-4-yl)amino)nicotinamide]
< 0.01	< 0.065	C[C@H](N)[C@@H](CC1CC1)Nc1nc(Nc2cccc3c2cnn3C)c(C(N)=O)cc1F [Example 006-356, 6-(((2R,3S)-3-amino-1-cyclopropylbutan-2-yl)amino)-5-fluoro-2-((1-methyl-1H-indazol-4-yl)amino)nicotinamide]
0.01 to 0.05	0.065 to 0.13	C[C@H](N)[C@@H](CC1CC1)Nc1nc(Nc2cncc(F)c2)c(C(N)=O)cc1F [Example 006-357, 6-(((2R,3S)-3-amino-1-cyclopropylbutan-2-yl)amino)-5-fluoro-2-((5-fluoropyridin-3-yl)amino)nicotinamide]
< 0.01	< 0.065	CC[C@@H](Nc1nc(Nc2ccc3cnn(C)c3c2)c(C(N)=O)cc1F)[C@H](C)N [Example 006-358, 6-(((2S,3R)-2-aminopentan-3-yl)amino)-5-fluoro-2-((1-methyl-1H-indazol-6-yl)amino)nicotinamide]
< 0.01	< 0.065	CCC[C@@H](Nc1nc(Nc2ccc3cnn(C)c3c2)c(C(N)=O)cc1F)[C@H](C)N [Example 006-359, 6-(((2S,3R)-2-aminohexan-3-yl)amino)-5-fluoro-2-((1-methyl-1H-indazol-6-yl)amino)nicotinamide]
< 0.01	0.065 to 0.13	CCCC[C@H](CN)Nc1nc(Nc2ccc3cnn(C)c3c2)c(C(N)=O)cc1F [Example 006-360, (R)-6-((1-aminohexan-2-yl)amino)-5-fluoro-2-((1-methyl-1H-indazol-6-yl)amino)nicotinamide]
< 0.01	0.065 to 0.13	C[C@H](N)[C@@H](CC1CC1)Nc1nc(Nc2ccc3cnn(C)c3c2)c(C(N)=O)cc1F [Example 006-361, 6-(((2R,3S)-3-amino-1-cyclopropylbutan-2-yl)amino)-5-fluoro-2-((1-methyl-1H-indazol-6-yl)amino)nicotinamide]
< 0.01	0.13 to 0.2	CC[C@H](N)[C@@H](C)Nc1nc(Nc2ccc3c(cnn3CC)c2)c(C(N)=O)cc1F [Example 006-362, 6-(((2R,3S)-3-aminopentan-2-yl)amino)-2-((1-ethyl-1H-indazol-5-yl)amino)-5-fluoronicotinamide]
< 0.01	0.065 to 0.13	CC[C@H](N)[C@@H](C)Nc1nc(Nc2ccc3c(cnn3CCOC)c2)c(C(N)=O)cc1F [Example 006-363, 6-(((2R,3S)-3-aminopentan-2-yl)amino)-5-fluoro-2-((1-(2-methoxyethyl)-1H-indazol-5-yl)amino)nicotinamide]
< 0.01	0.065 to 0.13	CC[C@H](N)[C@@H](CC)Nc1nc(Nc2ccc3c(cnn3C)c2)c(C(N)=O)cc1F [Example 006-364, 6-(((3R,4S)-4-aminohexan-3-yl)amino)-5-fluoro-2-((1-methyl-1H-indazol-5-yl)amino)nicotinamide]
< 0.01	0.065 to 0.13	CC[C@H](N)[C@@H](CC)Nc1nc(Nc2ccc3c(cnn3CC)c2)c(C(N)=O)cc1F [Example 006-365, 6-(((3R,4S)-4-aminohexan-3-yl)amino)-2-((1-ethyl-1H-indazol-5-yl)amino)-5-fluoronicotinamide]
< 0.01	< 0.065	C[C@H](N)[C@H](Nc1nc(Nc2ccc3c(cnn3C)c2)c(C(N)=O)cc1F)C1CC1 [Example 006-369, 6-(((1R,2S)-2-amino-1-cyclopropylpropyl)amino)-5-fluoro-2-((1-methyl-1H-indazol-5-yl)amino)nicotinamide]
< 0.01	< 0.065	C[C@H](N)[C@H](Nc1nc(Nc2ccc3cnn(C)c3c2)c(C(N)=O)cc1F)C1CC1 [Example 006-370, 6-(((1R,2S)-2-amino-1-cyclopropylpropyl)amino)-5-fluoro-2-((1-methyl-1H-indazol-6-yl)amino)nicotinamide]
< 0.01	0.065 to 0.13	C[C@H](N)[C@H](Nc1nc(Nc2cncc(C3CC3)c2)c(C(N)=O)cc1F)C1CC1 [Example 006-371, 6-(((1R,2S)-2-amino-1-cyclopropylpropyl)amino)-2-((5-cyclopropylpyridin-3-yl)amino)-5-fluoronicotinamide]
0.01 to 0.05	0.065 to 0.13	C[C@H](N)[C@H](Nc1nc(Nc2cncc(F)c2)c(C(N)=O)cc1F)C1CC1 [Example 006-372, 6-(((1R,2S)-2-amino-1-cyclopropylpropyl)amino)-5-fluoro-2-((5-fluoropyridin-3-yl)amino)nicotinamide]
< 0.01	< 0.065	C[C@H](N)[C@H](Nc1nc(Nc2cncc(-n3cccn3)c2)c(C(N)=O)cc1F)C1CC1 [Example 006-373, 2-((5-(1H-pyrazol-1-yl)pyridin-3-yl)amino)-6-(((1R,2S)-2-amino-1-cyclopropylpropyl)amino)-5-fluoronicotinamide]
0.01 to 0.05	0.13 to 0.2	Cc1ncc(Nc2nc(N[C@H](CC3CC3)[C@H](C)N)c(F)cc2C(N)=O)cc1-n1nccn1 [Example 006-374, 6-(((2R,3S)-3-amino-1-cyclopropylbutan-2-yl)amino)-5-fluoro-2-((6-methyl-5-(2H-1,2,3-triazol-2-yl)pyridin-3-yl)amino)nicotinamide]
< 0.01	0.065 to 0.13	CC[C@H](N)[C@@H](CC)Nc1nc(Nc2cncc(C3CC3)c2)c(C(N)=O)cc1F [Example 006-378, 6-(((3R,4S)-4-aminohexan-3-yl)amino)-2-((5-cyclopropylpyridin-3-yl)amino)-5-fluoronicotinamide]
< 0.01	0.13 to 0.2	CC[C@H](N)[C@@H](CC)Nc1nc(Nc2cc(OC)nc(OC)c2)c(C(N)=O)cc1F [Example 006-379, 6-(((3R,4S)-4-aminohexan-3-yl)amino)-2-((2,6-dimethoxypyridin-4-yl)amino)-5-fluoronicotinamide]
0.01 to 0.05	0.065 to 0.13	CC[C@H](N)[C@@H](CC)Nc1nc(Nc2cnc(C)c(-n3nccn3)c2)c(C(N)=O)cc1F [Example 006-380, 6-(((3R,4S)-4-aminohexan-3-yl)amino)-5-fluoro-2-((6-methyl-5-(2H-1,2,3-triazol-2-yl)pyridin-3-yl)amino)nicotinamide]
0.01 to 0.05	0.065 to 0.13	CC[C@H](N)[C@@H](CC)Nc1nc(Nc2ccnc(OC)c2)c(C(N)=O)cc1F [Example 006-381, 6-(((3R,4S)-4-aminohexan-3-yl)amino)-5-fluoro-2-((2-methoxypyridin-4-yl)amino)nicotinamide]
< 0.01	0.065 to 0.13	COCCn1ncc2cc(Nc3nc(N[C@H](CC(C)C)[C@H](C)N)c(F)cc3C(N)=O)ccc21 [Example 006-385, 6-(((2S,3R)-2-amino-5-methylhexan-3-yl)amino)-5-fluoro-2-((1-(2-methoxyethyl)-1H-indazol-5-yl)amino)nicotinamide]
< 0.01	< 0.065	Cc1ncc(Nc2nc(N[C@H](CC(C)C)[C@H](C)N)c(F)cc2C(N)=O)cc1-n1nccn1 [Example 006-386, 6-(((2S,3R)-2-amino-5-methylhexan-3-yl)amino)-5-fluoro-2-((6-methyl-5-(2H-1,2,3-triazol-2-yl)pyridin-3-yl)amino)nicotinamide]
< 0.01	0.065 to 0.13	CCCC[C@@H](Nc1nc(Nc2ccc3c(cnn3C)c2)c(C(N)=O)cc1F)[C@H](C)N [Example 006-387, 6-(((2S,3R)-2-aminoheptane-3-yl)amino)-5-fluoro-2-((1-methyl-1H-indazol-5-yl)amino)nicotinamide]
< 0.01	0.065 to 0.13	CCCC[C@@H](Nc1nc(Nc2ccc3c(cnn3CC)c2)c(C(N)=O)cc1F)[C@H](C)N [Example 006-388, 6-(((2S,3R)-2-aminoheptane-3-yl)amino)-2-((1-ethyl-1H-indazol-5-yl)amino)-5-fluoronicotinamide]
< 0.01	0.065 to 0.13	CCCC[C@@H](Nc1nc(Nc2ccc3c(cnn3CCOC)c2)c(C(N)=O)cc1F)[C@H](C)N [Example 006-389, 6-(((2S,3R)-2-aminoheptane-3-yl)amino)-5-fluoro-2-((1-(2-methoxyethyl)-1H-indazol-5-yl)amino)nicotinamide]
< 0.01	0.065 to 0.13	CCCC[C@@H](Nc1nc(Nc2cnc(C)c(-n3nccn3)c2)c(C(N)=O)cc1F)[C@H](C)N [Example 006-390, 6-(((2S,3R)-2-aminoheptan-3-yl)amino)-5-fluoro-2-((6-methyl-5-(2H-1,2,3-triazol-2-yl)pyridin-3-yl)amino)nicotinamide]
< 0.01	0.065 to 0.13	C[C@H](N)[C@@H](CC1CC1)Nc1nc(Nc2cncc(-n3cccn3)c2)c(C(N)=O)cc1F [Example 006-392, 2-((5-(1H-pyrazol-1-yl)pyridin-3-yl)amino)-6-(((2R,3S)-3-amino-1-cyclopropylbutan-2-yl)amino)-5-fluoronicotinamide]
< 0.01	0.065 to 0.13	COCCOc1cc(Nc2nc(N[C@H](CC3CC3)[C@H](C)N)c(F)cc2C(N)=O)ccn1 [Example 006-394, 6-(((2R,3S)-3-amino-1-cyclopropylbutan-2-yl)amino)-5-fluoro-2-((2-(2-methoxyethoxy)pyridin-4-yl)amino)nicotinamide]
